Data from article PMC11229374, “Unlocking the potential of protein-derived peptides to target G-quadruplex DNA: from recognition to anticancer activity” (Nucleic Acids Research, 2024).
Several values for one entry are separate records, joined by “and”; a condition that tells them apart may be missing. Equal values may be shown once.

Columns and labels:
BCL-2 G4 = conditions: CD melting at 264 nm, 2 μM DNA, 1 mol equiv peptide, 5 mM KH2PO4/K2HPO4 pH 7.0, 20 mM KCl, 1°C/min; average of three; T1/2 DNA alone 60.7°C
Experimental: (§1) CD experiments were carried out using a Jasco J-815 spectropolarimeter equipped with a PTC-423S/15 Peltier temperature controller. G4-forming and duplex-forming DNA molecules were prepared at a concentration of 2 μM in 5 mM KH2PO4/K2HPO4 buffer (pH 7.0) containing 20 mM KCl or LiCl. CD spectra of DNA/peptide mixtures were obtained by adding 1 mol equiv of peptide (stock solutions of 10 mM in H2O) with respect to the oligonucleotide. CD spectra of DNA molecules in the absence and presence of peptide were recorded at 20 and 100°C in the wavelength range of 220−320 nm and averaged over three scans, utilizing a scan rate of 100 nm/min with a 0.5 s response time and 1 nm bandwidth. The buffer baseline was subtracted from each spectrum. Additionally, CD spectra of Myb1^397–415 in the absence and presence of G4s were recorded at 20°C in the 200−250 nm wavelength range using a scan rate of 20 nm/min, with a 4 s response time and 2 nm bandwidth. The G4 spectra were subtracted from the corresponding G4/peptide mixtures to obtain information on the peptide spectrum in the presence of G4. The percentage of secondary structures adopted by the peptide in the absence and presence of the G4s was estimated using the BeStSel software ([26]). CD melting experiments were performed in the absence and presence of peptides (1 or 2 mol equiv) in the 20−100°C temperature range at 1°C/min heating rate, monitoring changes of the CD signal at wavelengths corresponding to the maximum CD intensity for the G4s (264 nm for c-KIT1, c-KIT2, c-MYC, HER2, HT-FANA, BCL-2, and VEGFR-17T; 290 nm for HRAS1, LWDLN1, HT1, and HT2) and at 252 nm for ds12 duplex. The apparent melting temperatures (T1/2) were determined using non-linear curve fitting with OriginLab© 2021 software (OriginLab Corp., MA, USA). ΔT1/2 values were calculated as the difference in the T1/2 values of the DNA structures in the presence and absence of a peptide.

HER2 G4 = conditions: CD melting at 264 nm, 2 μM DNA, 1 mol equiv peptide, 5 mM KH2PO4/K2HPO4 pH 7.0, 20 mM KCl, 1°C/min; average of three; T1/2 DNA alone 62.4°C
Experimental: as §1

HT-FANA G4 = conditions: CD melting at 264 nm, 2 μM DNA, 1 mol equiv peptide, 5 mM KH2PO4/K2HPO4 pH 7.0, 20 mM KCl, 1°C/min; average of three; T1/2 DNA alone 62.9°C
Experimental: as §1

VEGFR-17T G4 = conditions: CD melting at 264 nm, 2 μM DNA, 1 mol equiv peptide, 5 mM KH2PO4/K2HPO4 pH 7.0, 20 mM KCl, 1°C/min; average of three; T1/2 DNA alone 53.7°C
Experimental: as §1

c-KIT1 G4 = conditions: CD melting at 264 nm, 2 μM DNA, 1 mol equiv peptide, 5 mM KH2PO4/K2HPO4 pH 7.0, 20 mM KCl, 1°C/min; average of three; T1/2 DNA alone 53.8°C
Experimental: as §1

c-MYC G4 = conditions: CD melting at 264 nm, 2 μM DNA, 1 mol equiv peptide, 5 mM KH2PO4/K2HPO4 pH 7.0, 20 mM LiCl, 1°C/min; average of three; T1/2 DNA alone 68.2°C
Experimental: as §1

ds12 duplex = conditions: CD melting at 252 nm, 2 μM DNA, 1 mol equiv peptide, 5 mM KH2PO4/K2HPO4 pH 7.0, 20 mM KCl, 1°C/min; average of three; T1/2 DNA alone 62.7°C
Experimental: as §1

Ac-NHTGNSIRHRFRVYLSKRL-NH2 [Myb^397–415]
ΔT1/2 of BCL-2 G4 (BCL-2 G4): 8.0 (±0.2) °C | ΔT1/2 of HER2 G4 (HER2 G4): 7.0 (±0.2) °C | ΔT1/2 of HT-FANA G4 (HT-FANA G4): 8.3 °C and 8.3 (±0.2) °C | ΔT1/2 of VEGFR-17T G4 (VEGFR-17T G4): 0.2 (±0.2) °C | ΔT1/2 of c-KIT1 G4 (c-KIT1 G4): 6.2 (±0.2) °C | ΔT1/2 of c-MYC G4 (c-MYC G4): 5.0 (±0.2) °C | ΔT1/2 of ds12 duplex (ds12 duplex): 1.0 °C and 1.0 (±0.2) °C
